Assay results reported in PubChem BioAssay (NCI).
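Cultured in 96-well plates, cells were exposed to test compound for 48 hours across five concentrations. TGI: concentration producing complete growth inhibition.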

Columns and labels:
Test in all cases: growth of human tumour cells (NCI), 48 h
NCI-H226 lung = tested on: NCI-H226 lung
HL-60(TB) leukemia = tested on: HL-60(TB) leukemia
RXF 393 renal = tested on: RXF 393 renal
SF-268 CNS = tested on: SF-268 CNS
COLO 205 colon = tested on: COLO 205 colon
NCI-H522 lung = tested on: NCI-H522 lung
MCF7 breast = tested on: MCF7 breast
HT29 colon = tested on: HT29 colon
MDA-MB-231 breast = tested on: MDA-MB-231 breast
SK-OV-3 ovarian = tested on: SK-OV-3 ovarian
UACC-62 melanoma = tested on: UACC-62 melanoma
RPMI-8226 leukemia = tested on: RPMI-8226 leukemia
M14 melanoma = tested on: M14 melanoma
MDA-N = tested on: MDA-N
UACC-257 melanoma = tested on: UACC-257 melanoma
SNB-75 CNS = tested on: SNB-75 CNS
PC-3 prostate = tested on: PC-3 prostate
EKVX NSCLC = tested on: EKVX NSCLC
UO-31 renal = tested on: UO-31 renal
HS 578T breast = tested on: HS 578T breast
OVCAR-8 ovarian = tested on: OVCAR-8 ovarian
MDA-MB-435 = tested on: MDA-MB-435
NCI/ADR-RES ovarian = tested on: NCI/ADR-RES ovarian
NCI-H23 lung = tested on: NCI-H23 lung
HCT-116 colon = tested on: HCT-116 colon
HOP-92 NSCLC = tested on: HOP-92 NSCLC
A549 NSCLC = tested on: A549 NSCLC
IGROV1 ovarian = tested on: IGROV1 ovarian
KM12 colon = tested on: KM12 colon
K-562 leukemia = tested on: K-562 leukemia
CAKI-1 renal = tested on: CAKI-1 renal
MALME-3M melanoma = tested on: MALME-3M melanoma
U251 CNS = tested on: U251 CNS
SR leukemia = tested on: SR leukemia
BT-549 breast = tested on: BT-549 breast
OVCAR-4 ovarian = tested on: OVCAR-4 ovarian
CCRF-CEM leukemia = tested on: CCRF-CEM leukemia
OVCAR-5 ovarian = tested on: OVCAR-5 ovarian
SW-620 colon = tested on: SW-620 colon
ACHN renal = tested on: ACHN renal
DU-145 prostate = tested on: DU-145 prostate
SK-MEL-2 melanoma = tested on: SK-MEL-2 melanoma
786-0 renal = tested on: 786-0 renal
HCC-2998 colon = tested on: HCC-2998 colon
NCI-H460 lung = tested on: NCI-H460 lung
HCT-15 colon = tested on: HCT-15 colon
HOP-62 NSCLC = tested on: HOP-62 NSCLC
SK-MEL-28 melanoma = tested on: SK-MEL-28 melanoma
SN12C renal = tested on: SN12C renal
TK-10 renal = tested on: TK-10 renal
SK-MEL-5 melanoma = tested on: SK-MEL-5 melanoma
OVCAR-3 ovarian = tested on: OVCAR-3 ovarian
LOX IMVI melanoma = tested on: LOX IMVI melanoma
SF-295 CNS = tested on: SF-295 CNS
A498 renal = tested on: A498 renal
T-47D breast = tested on: T-47D breast
SNB-19 CNS = tested on: SNB-19 CNS
MOLT-4 leukemia = tested on: MOLT-4 leukemia
SF-539 CNS = tested on: SF-539 CNS
DLD-1 colon = tested on: DLD-1 colon
DMS 114 small cell lung = tested on: DMS 114 small cell lung
KM20L2 colon = tested on: KM20L2 colon
SNB-78 CNS = tested on: SNB-78 CNS
LXFL 529 NSCLC = tested on: LXFL 529 NSCLC
XF 498 CNS = tested on: XF 498 CNS
M19-MEL melanoma = tested on: M19-MEL melanoma
DMS 273 small cell lung = tested on: DMS 273 small cell lung

For `COC(=O)/C(C#N)=C/c1cc(C(C)(C)C)c(O)c(C(C)(C)C)c1`, the TGI (NCI-H226 lung) was 9.6 µM, the TGI (HL-60(TB) leukemia) was 4.47 µM and the TGI (RXF 393 renal) was 14.8 µM. For the same compound, the TGI (SF-268 CNS) was > 40.5 µM, the TGI (COLO 205 colon) was 2.78 µM and the TGI (NCI-H522 lung) was 5.52 µM. It also gave a TGI (MCF7 breast) of 15.7 µM, a TGI (HT29 colon) of 12.1 µM and a TGI (MDA-MB-231 breast) of 4.95 µM. The TGI (SK-OV-3 ovarian) was 8.04 µM, the TGI (UACC-62 melanoma) was 15.1 µM and the TGI (RPMI-8226 leukemia) was 3.54 µM. For the same compound, the TGI (M14 melanoma) was 13.6 µM, the TGI (MDA-N) was 13.3 µM and the TGI (UACC-257 melanoma) was 6.72 µM. For the same compound, the TGI (SNB-75 CNS) was 17.1 µM, the TGI (PC-3 prostate) was 6.78 µM and the TGI (EKVX NSCLC) was 11.9 µM. For the same compound, the TGI (UO-31 renal) was 10 µM, the TGI (HS 578T breast) was > 37 µM and the TGI (OVCAR-8 ovarian) was 33.6 µM. For the same compound, the TGI (MDA-MB-435) was 18.4 µM, the TGI (NCI/ADR-RES ovarian) was 9.65 µM and the TGI (NCI-H23 lung) was 12.5 µM. The TGI (HCT-116 colon) was 10.5 µM, the TGI (HOP-92 NSCLC) was 12.4 µM and the TGI (A549 NSCLC) was > 100 µM. The TGI (IGROV1 ovarian) was > 100 µM, the TGI (KM12 colon) was 19.9 µM and the TGI (K-562 leukemia) was > 47.8 µM. For the same compound, the TGI (CAKI-1 renal) was > 27.4 µM, the TGI (MALME-3M melanoma) was 20.4 µM and the TGI (U251 CNS) was 11.5 µM. For the same compound, the TGI (SR leukemia) was 11 µM, the TGI (BT-549 breast) was 14 µM and the TGI (OVCAR-4 ovarian) was > 51.2 µM. For the same compound, the TGI (CCRF-CEM leukemia) was 9.69 µM, the TGI (OVCAR-5 ovarian) was 8.51 µM and the TGI (SW-620 colon) was 14.5 µM. For the same compound, the TGI (ACHN renal) was > 31.3 µM, the TGI (DU-145 prostate) was > 100 µM and the TGI (SK-MEL-2 melanoma) was 4.92 µM. It also gave a TGI (786-0 renal) of 12.2 µM, a TGI (HCC-2998 colon) of 7.8 µM and a TGI (NCI-H460 lung) of 5.75 µM. For the same compound, the TGI (HCT-15 colon) was 13 µM, the TGI (HOP-62 NSCLC) was 11.3 µM and the TGI (SK-MEL-28 melanoma) was 15.4 µM. For the same compound, the TGI (SN12C renal) was 8.17 µM, the TGI (TK-10 renal) was 12.9 µM and the TGI (SK-MEL-5 melanoma) was 3.39 µM. For the same compound, the TGI (OVCAR-3 ovarian) was 5.55 µM, the TGI (LOX IMVI melanoma) was 17 µM and the TGI (SF-295 CNS) was 6.74 µM. For the same compound, the TGI (A498 renal) was 8.37 µM, the TGI (T-47D breast) was 19.4 µM and the TGI (SNB-19 CNS) was > 100 µM. The TGI (MOLT-4 leukemia) was > 29.6 µM and the TGI (SF-539 CNS) was 11 µM.
With `COc1ccc(/C=C/c2nc(=S)[nH][nH]2)cc1OC` the TGI (NCI-H226 lung) was > 100 µM, the TGI (HL-60(TB) leukemia) was > 100 µM and the TGI (RXF 393 renal) was > 100 µM. The TGI (DLD-1 colon) was > 100 µM, the TGI (SF-268 CNS) was > 100 µM and the TGI (DMS 114 small cell lung) was > 100 µM. For the same compound, the TGI (HT29 colon) was > 100 µM, the TGI (UACC-62 melanoma) was > 100 µM and the TGI (RPMI-8226 leukemia) was > 100 µM. The TGI (M14 melanoma) was > 100 µM, the TGI (UACC-257 melanoma) was > 100 µM and the TGI (SNB-75 CNS) was > 100 µM. For the same compound, the TGI (KM20L2 colon) was > 100 µM, the TGI (UO-31 renal) was > 100 µM and the TGI (OVCAR-8 ovarian) was > 100 µM. The TGI (NCI-H23 lung) was > 100 µM, the TGI (HCT-116 colon) was > 100 µM and the TGI (SNB-78 CNS) was > 100 µM. For the same compound, the TGI (HOP-92 NSCLC) was > 100 µM, the TGI (A549 NSCLC) was > 100 µM and the TGI (IGROV1 ovarian) was > 100 µM. For the same compound, the TGI (K-562 leukemia) was > 100 µM, the TGI (LXFL 529 NSCLC) was > 100 µM and the TGI (CAKI-1 renal) was > 100 µM. For the same compound, the TGI (MALME-3M melanoma) was > 100 µM, the TGI (U251 CNS) was > 100 µM and the TGI (SR leukemia) was > 100 µM. For the same compound, the TGI (OVCAR-4 ovarian) was > 100 µM, the TGI (CCRF-CEM leukemia) was > 100 µM and the TGI (OVCAR-5 ovarian) was > 100 µM. For the same compound, the TGI (SW-620 colon) was > 100 µM, the TGI (ACHN renal) was > 100 µM and the TGI (XF 498 CNS) was > 100 µM. The TGI (M19-MEL melanoma) was > 100 µM, the TGI (SK-MEL-2 melanoma) was > 100 µM and the TGI (786-0 renal) was > 100 µM. For the same compound, the TGI (HCC-2998 colon) was > 100 µM, the TGI (NCI-H460 lung) was > 100 µM and the TGI (HCT-15 colon) was > 100 µM. For the same compound, the TGI (SK-MEL-28 melanoma) was > 100 µM, the TGI (SN12C renal) was > 100 µM and the TGI (TK-10 renal) was > 100 µM. The TGI (DMS 273 small cell lung) was > 100 µM, the TGI (SK-MEL-5 melanoma) was > 100 µM and the TGI (OVCAR-3 ovarian) was > 100 µM. For the same compound, the TGI (LOX IMVI melanoma) was > 100 µM, the TGI (SF-295 CNS) was > 100 µM and the TGI (A498 renal) was > 100 µM. The TGI (SNB-19 CNS) was > 100 µM, the TGI (MOLT-4 leukemia) was > 100 µM and the TGI (SF-539 CNS) was > 100 µM.
